Experimental data taken from patent publication US10195185B2, “3-(1H-imidazo[4,5-C]pyridin-2-yl)-1H-pyrazolo[4,3-B]pyridines and therapeutic uses thereof” (Samumed, LLC, priority 2015, dated 2019).

Columns and labels:
Type in all cases: cell-based
[1] = test system: Primary human fibroblasts derived from IPF patients (LL29 cells) treated with TGF-β1; assay: Inhibition of the fibrotic process: αSMA staining in TGF-β1 treated fibroblasts; conditions: Fibroblast, 96 h, LL29 fibroblasts treated with TGF-β1, 4 days; for inhibition at 10 µM: read-out: percent inhibition in brackets beside EC50 >10 μM
Procedure, shortened: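 EC50 values come from non-linear fits of the αSMA-positive percentage among SYTOX-excluded live cells, normalized to TGF-β1 plus DMSO controls, or appear as % inhibition at 10 μM when above 10 μM. Fibrosis was induced in IPF-derived LL29 fibroblasts by 20 ng/mL TGF-β1 over 4 days, with 1:2 compound dilutions from 10 μM.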

SW480 colon cancer cells = assay: Cell viability assay (CellTiter-Blue), four days; conditions: Homo sapiens, 96 h; for EC50: CellTiter-Blue cell viability; for inhibition at 10 µM: read-out: percent inhibition at 10 μM (given for EC50 of >10 μM)
Procedure, shortened: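 Resazurin reduction (Ex 560/Em 590 nm, ~3 h reagent incubation) served as the viability read-out after SW480 cells were treated for four days at 37 °C. Doses ran from 10 μM down to 0.0045 μM in eight 1:3 steps. Curves fitted non-linearly for EC50, else % inhibition at 10 μM reported.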

[2] = test system: Wnt activity (Wnt-responsive human Sp5 promoter, TCF/LEF binding sites) in SW480 colon carcinoma cells; assay: Wnt activity screening assay: Sp5-Luc luciferase reporter gene in SW480 cells; conditions: for EC50: 10-point dose-response from 10 μM, incubated overnight; for inhibition at 10 µM: given for EC50 of >10 μM, read-out: percent inhibition at 10 μM
Procedure, shortened: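 Wnt-driven firefly luciferase in SW480 colon carcinoma cells reports pathway activity after overnight compound exposure (10 μM top concentration, 3-fold steps). Signal is normalized to DMSO controls.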

Compound: Fc1cccc(-c2nccc3[nH]c(-c4n[nH]c5ccc(-c6cn[nH]c6)nc45)nc23)c1 [Compound 507, 3-(4-(3-Fluorophenyl)-1H-imidazo[4,5-c]pyridin-2-yl)-5-(1H-pyrazol-4-yl)-1H-pyrazolo[4,3-b]pyridine]
- EC50 [1]: > 10000 nM
- inhibition at 10 µM [1]: 9.9%
- EC50 (SW480 colon cancer cells): > 10 µM
- EC50 [2]: > 10 µM
- inhibition at 10 µM [2]: 15%

Compound: O=C(Nc1cncc(-c2ccc3[nH]nc(-c4nc5c(-c6cccc(F)c6)nccc5[nH]4)c3n2)c1)C1CC1 [Compound 20, N-(5-(3-(4-(3-Fluorophenyl)-1H-imidazo[4,5-c]pyridin-2-yl)-1H-pyrazolo [4,3-b]pyridin-5-yl)pyridin-3-yl)cyclopropanecarboxamide]
- EC50 [1]: > 10000 nM
- inhibition at 10 µM [1]: 14.1%
- inhibition at 10 µM (SW480 colon cancer cells): 6%
- EC50 (SW480 colon cancer cells): > 10 µM
- EC50 [2]: > 10 µM
- inhibition at 10 µM [2]: 14.7%

Compound: O=C(CC1CCNCC1)Nc1cncc(-c2ccc3[nH]nc(-c4nc5c(-c6ccccn6)nccc5[nH]4)c3n2)c1 [Compound 593, 2-(Piperidin-4-yl)-N-(5-(3-(4-(pyri-2-yl)-1H-imidazo[4,5-c]pyridin-2-yl)-1H-pyrazolo[4,3-b]pyridin-5-yl)pyridin-3-yl)acetamide]
- EC50 [1]: 1570 nM
- inhibition at 10 µM (SW480 colon cancer cells): 9.1%
- EC50 (SW480 colon cancer cells): > 10 µM
- EC50 [2]: > 10 µM
- inhibition at 10 µM [2]: 31.4%

Compound: Oc1cncc(-c2ccc3[nH]nc(-c4nc5c(-c6cccnc6)nccc5[nH]4)c3n2)c1 [Compound 565, 5-(3-(4-(Pyridin-3-yl)-1H-imidazo[4,5-c]pyridin-2-yl)-1H-pyrazolo[4,3-b]pyridin-5-yl)pyridin-3-ol]
- EC50 [1]: 797 nM
- inhibition at 10 µM (SW480 colon cancer cells): 32.7%
- EC50 (SW480 colon cancer cells): > 10 µM
- EC50 [2]: 0.456 µM

Compound: c1cc(-c2nccc3[nH]c(-c4n[nH]c5ccc(-c6cnccn6)nc45)nc23)ccn1 [Compound 584, 5-(Pyrazin-2-yl)-3-(4-(pyridin-4-yl)-1H-imidazo[4,5-c]pyridin-2-yl)-1H-pyrazolo[4,3-b]pyridine]
- EC50 [1]: > 10000 nM
- inhibition at 10 µM [1]: 0%
- inhibition at 10 µM (SW480 colon cancer cells): 2.1%
- EC50 (SW480 colon cancer cells): > 10 µM
- EC50 [2]: > 10 µM
- inhibition at 10 µM [2]: 5.7%

Compound: Cc1ccc(-c2nccc3[nH]c(-c4n[nH]c5ccc(-c6cncc(NC(=O)C7CCCC7)c6)nc45)nc23)s1 [Compound 414, N-(5-(3-(4-(5-Methylthiophen-2-yl)-1H-imidazo[4,5-c]pyridin-2-yl)-1H-pyrazolo[4,3-b]pyridin-5-yl)pyridin-3-yl)cyclopentanecarboxamide]
- EC50 [1]: > 10000 nM
- inhibition at 10 µM [1]: 46.2%
- inhibition at 10 µM (SW480 colon cancer cells): 0.4%
- EC50 (SW480 colon cancer cells): > 10 µM
- EC50 [2]: > 10 µM
- inhibition at 10 µM [2]: 23.8%

Compound: c1cncc(-c2nccc3[nH]c(-c4n[nH]c5ccc(-c6cncc(OC7CCCCC7)c6)nc45)nc23)c1 [Compound 559, 5-(5-(Cyclohexyloxy)pyridin-3-yl)-3-(4-(pyridin-3-yl)-1H-imidazo[4,5-c]pyridin-2-yl)-1H-pyrazolo[4,3-b]pyridine]
- EC50 [1]: 2730 nM
- inhibition at 10 µM (SW480 colon cancer cells): 18%
- EC50 (SW480 colon cancer cells): > 10 µM
- EC50 [2]: 3.25 µM

Compound: CN(C)CCOc1cncc(-c2ccc3[nH]nc(-c4nc5c(-c6cccc(F)c6)nccc5[nH]4)c3n2)c1 [Compound 515, 2-((5-(3-(4-(3-Fluorophenyl)-1H-imidazo[4,5-c]pyridin-2-yl)-1H-pyrazolo [4,3-b]pyridin-5-yl)pyridin-3-yl)oxy)-N,N-dimethylethan-1-amine]
- EC50 [1]: 865 nM
- EC50 (SW480 colon cancer cells): 1.61 µM
- EC50 [2]: 3.48 µM

Compound: CN(C)c1cncc(-c2ccc3[nH]nc(-c4nc5c(-c6cccc(F)c6)nccc5[nH]4)c3n2)c1 [Compound 7]
- EC50 [1]: 387 nM
- EC50 (SW480 colon cancer cells): 0.944 µM
- EC50 [2]: 0.379 µM

Compound: Fc1cccc(-c2nccc3[nH]c(-c4n[nH]c5ccc(C6CCNCC6)nc45)nc23)c1 [Compound 505, 3-(4-(3-Fluorophenyl)-1H-imidazo[4,5-c]pyridin-2-yl)-5-(piperidin-4-yl)-1H-pyrazolo[4,3-b]pyridine]
- EC50 [1]: 3800 nM
- inhibition at 10 µM (SW480 colon cancer cells): 0.4%
- EC50 (SW480 colon cancer cells): > 10 µM
- EC50 [2]: > 10 µM
- inhibition at 10 µM [2]: 11.9%
